Measurements as given in US9717748B2, “Compositions and methods for treating an infection” (CMPD LICENSING, LLC, priority 2015, dated 2017).

Assays:
Brucella species = conditions: Gram: neg
Chlamydia psittaci = conditions: Gram: n/a
Pseudomonas aeruginosa = experiment: Expected efficacy of antibiotic agents; conditions: Gram: neg
Yersinia pestis = conditions: Gram: neg
Legionella pneumophila = conditions: Gram: neg
Enterococcus faecium = experiment: Expected efficacy of antibiotic agents; conditions: Gram: pos
Chlamydia pneumoniae = experiment: Expected efficacy of antibiotic agents; conditions: Gram: n/a
Citrobacter freundii = experiment: Expected efficacy of antibiotic agents; conditions: Gram: neg
[1] = tested on: Haemophilus parainfluenzae; experiment: Expected efficacy of antibiotic agents; conditions: Gram: neg
Providencia rettgeri = experiment: Expected efficacy of antibiotic agents; conditions: Gram: neg
Moraxella catarrhalis = experiment: Expected efficacy of antibiotic agents; conditions: Gram: neg
Enterococcus faecalis = experiment: Expected efficacy of antibiotic agents; conditions: Gram: pos
Francisella tularensis = conditions: Gram: neg
Proteus vulgaris = experiment: Expected efficacy of antibiotic agents; conditions: Gram: neg
Citrobacter diversus = experiment: Expected efficacy of antibiotic agents; conditions: Gram: neg
Campylobacter jejuni = experiment: Expected efficacy of antibiotic agents; conditions: Gram: neg
Acinetobacter lwoffii = experiment: Expected efficacy of antibiotic agents; conditions: Gram: neg
Proteus mirabilis = experiment: Expected efficacy of antibiotic agents; conditions: Gram: neg
Morganella morganii = experiment: Expected efficacy of antibiotic agents; conditions: Gram: neg
Haemophilus ducreyi = experiment: Expected efficacy of antibiotic agents; conditions: Gram: neg
Acinetobacter baumannii = experiment: Expected efficacy of antibiotic agents; conditions: Gram: neg
[2] = tested on: Klebsiella (Calymmato-bacterium) granulomatis; experiment: Expected efficacy of antibiotic agents; conditions: Gram: neg
Serratia marcescens = experiment: Expected efficacy of antibiotic agents; conditions: Gram: neg
Chlamydia trachomatis = experiment: Expected efficacy of antibiotic agents; conditions: Gram: n/a
Providencia stuartii = experiment: Expected efficacy of antibiotic agents; conditions: Gram: neg
[3] = tested on: Staphylococcus epidermidis; experiment: Expected efficacy of antibiotic agents; conditions: Gram: pos
Aspergillus flavus = experiment: Expected efficacy of antifungal agents
Cryptococcus neoformans = experiment: Expected efficacy of antifungal agents
Aspergillus fumigatus = experiment: Expected efficacy of antifungal agents
[4] = tested on: Staphylococcus aureus (MSSA); experiment: Expected efficacy of antibiotic agents; conditions: Gram: pos
[5] = tested on: Methicillin resistant staphaureus (MRSA); experiment: Expected efficacy of antibiotic agents; conditions: Gram: pos
Shigella sonnei = experiment: Expected efficacy of antibiotic agents; conditions: Gram: neg
Corynebacterium jeikeium = experiment: Expected efficacy of antibiotic agents; conditions: Gram: pos
Neisseria gonorrhoeae = experiment: Expected efficacy of antibiotic agents; conditions: Gram: neg
Klebsiella pneumoniae = experiment: Expected efficacy of antibiotic agents; conditions: Gram: neg
Bacteroides fragilis = experiment: Expected efficacy of antibiotic agents; conditions: Gram: anaer
Shigella dysenteriae = experiment: Expected efficacy of antibiotic agents; conditions: Gram: neg
Salmonella typhi = experiment: Expected efficacy of antibiotic agents; conditions: Gram: neg
Shigella flexneri = experiment: Expected efficacy of antibiotic agents; conditions: Gram: neg
Mycoplasma pneumoniae = experiment: Expected efficacy of antibiotic agents; conditions: Gram: n/a
Clostridium difficile = experiment: Expected efficacy of antibiotic agents; conditions: Gram: anaer
Enterobacter sakazakii = experiment: Expected efficacy of antibiotic agents; conditions: Gram: neg
[6] = tested on: Acinetobacter calcoaceticus; experiment: Expected efficacy of antibiotic agents; conditions: Gram: neg
Streptococcus agalactiae = experiment: Expected efficacy of antibiotic agents; conditions: Gram: pos
Streptococcus pyogenes = experiment: Expected efficacy of antibiotic agents; conditions: Gram: pos
Klebsiella oxytoca = experiment: Expected efficacy of antibiotic agents; conditions: Gram: neg
Clostridium perfringens = conditions: Gram: anaer
Pseudomonas fluorescens = experiment: Expected efficacy of antibiotic agents; conditions: Gram: neg
Enterobacter aerogenes = experiment: Expected efficacy of antibiotic agents; conditions: Gram: neg
Escherichia coli = experiment: Expected efficacy of antibiotic agents; conditions: Gram: neg
Enterobacter cloacae = experiment: Expected efficacy of antibiotic agents; conditions: Gram: neg

C[C@H]1c2cccc(O)c2C(=O)C2=C(O)[C@]3(O)C(=O)C(C(N)=O)=C(O)[C@@H](N(C)C)[C@@H]3[C@@H](O)[C@@H]21 [Doxycyline]
Expected efficacy against Brucella species (Brucella species): yes
Expected efficacy against Chlamydia psittaci (Chlamydia psittaci): yes
Expected efficacy against Pseudomonas aeruginosa (Pseudomonas aeruginosa): no
Expected efficacy against Yersinia pestis (Yersinia pestis): yes
Expected efficacy against Legionella pneumophila (Legionella pneumophila): yes
Expected efficacy against Enterococcus faecium (Enterococcus faecium): no
Expected efficacy against Chlamydia pneumoniae (Chlamydia pneumoniae): yes
Expected efficacy against Citrobacter freundii (Citrobacter freundii): no
Expected efficacy against Haemophilus parainfluenzae [1]: yes
Expected efficacy against Providencia rettgeri (Providencia rettgeri): no
Expected efficacy against Moraxella catarrhalis (Moraxella catarrhalis): yes
Expected efficacy against Enterococcus faecalis (Enterococcus faecalis): no
Expected efficacy against Francisella tularensis (Francisella tularensis): yes
Expected efficacy against Proteus vulgaris (Proteus vulgaris): no
Expected efficacy against Citrobacter diversus (Citrobacter diversus): no
Expected efficacy against Campylobacter jejuni (Campylobacter jejuni): yes
Expected efficacy against Acinetobacter lwoffii (Acinetobacter lwoffii): no
Expected efficacy against Proteus mirabilis (Proteus mirabilis): no
Expected efficacy against Morganella morganii (Morganella morganii): no
Expected efficacy against Haemophilus ducreyi (Haemophilus ducreyi): yes
Expected efficacy against Acinetobacter baumannii (Acinetobacter baumannii): no
Expected efficacy against Klebsiella (Calymmato-bacterium) granulomatis [2]: yes
Expected efficacy against Serratia marcescens (Serratia marcescens): no
Expected efficacy against Chlamydia trachomatis (Chlamydia trachomatis): yes
Expected efficacy against Providencia stuartii (Providencia stuartii): no
Expected efficacy against Staphylococcus epidermidis [3]: yes

OC(Cn1cncn1)(Cn1cncn1)c1ccc(F)cc1F [Fluconazole]
Expected efficacy against Coccidioides immitis (Coccidioides immitis): yes
Expected efficacy against Aspergillus flavus (Aspergillus flavus): yes
Expected efficacy against Cryptococcus neoformans (Cryptococcus neoformans): yes
Expected efficacy against Aspergillus fumigatus (Aspergillus fumigatus): yes

O=C(O)c1cn(C2CC2)c2cc(N3CCNCC3)c(F)cc2c1=O [Ciprofloxacin]
Expected efficacy against Pseudomonas aeruginosa (Pseudomonas aeruginosa): yes
Expected efficacy against Yersinia pestis (Yersinia pestis): yes
Expected efficacy against Legionella pneumophila (Legionella pneumophila): yes
Expected efficacy against Enterococcus faecium (Enterococcus faecium): no
Expected efficacy against Chlamydia pneumoniae (Chlamydia pneumoniae): yes
Expected efficacy against Citrobacter freundii (Citrobacter freundii): yes
Expected efficacy against Staphylococcus aureus (MSSA) [4]: no
Expected efficacy against Methicillin resistant staphaureus (MRSA) [5]: no
Expected efficacy against Shigella sonnei (Shigella sonnei): yes
Expected efficacy against Haemophilus parainfluenzae [1]: yes
Expected efficacy against Providencia rettgeri (Providencia rettgeri): yes
Expected efficacy against Corynebacterium jeikeium (Corynebacterium jeikeium): no
Expected efficacy against Neisseria gonorrhoeae (Neisseria gonorrhoeae): yes
Expected efficacy against Moraxella catarrhalis (Moraxella catarrhalis): yes
Expected efficacy against Klebsiella pneumoniae (Klebsiella pneumoniae): yes
Expected efficacy against Francisella tularensis (Francisella tularensis): yes
Expected efficacy against Campylobacter jejuni (Campylobacter jejuni): yes
Expected efficacy against Proteus mirabilis (Proteus mirabilis): yes
Expected efficacy against Bacteroides fragilis (Bacteroides fragilis): no
Expected efficacy against Shigella dysenteriae (Shigella dysenteriae): yes
Expected efficacy against Salmonella typhi (Salmonella typhi): yes
Expected efficacy against Shigella flexneri (Shigella flexneri): yes
Expected efficacy against Providencia stuartii (Providencia stuartii): yes
Expected efficacy against Staphylococcus epidermidis [3]: yes

Azithromycin
Expected efficacy against Brucella species (Brucella species): no
Expected efficacy against Chlamydia psittaci (Chlamydia psittaci): yes
Expected efficacy against Pseudomonas aeruginosa (Pseudomonas aeruginosa): no
Expected efficacy against Legionella pneumophila (Legionella pneumophila): yes
Expected efficacy against Mycoplasma pneumoniae (Mycoplasma pneumoniae): yes
Expected efficacy against Enterococcus faecium (Enterococcus faecium): no
Expected efficacy against Chlamydia pneumoniae (Chlamydia pneumoniae): yes
Expected efficacy against Citrobacter freundii (Citrobacter freundii): no
Expected efficacy against Staphylococcus aureus (MSSA) [4]: yes
Expected efficacy against Methicillin resistant staphaureus (MRSA) [5]: no
Expected efficacy against Providencia rettgeri (Providencia rettgeri): no
Expected efficacy against Corynebacterium jeikeium (Corynebacterium jeikeium): no
Expected efficacy against Clostridium difficile (Clostridium difficile): no
Expected efficacy against Moraxella catarrhalis (Moraxella catarrhalis): yes
Expected efficacy against Enterococcus faecalis (Enterococcus faecalis): no
Expected efficacy against Klebsiella pneumoniae (Klebsiella pneumoniae): no
Expected efficacy against Francisella tularensis (Francisella tularensis): no
Expected efficacy against Proteus vulgaris (Proteus vulgaris): no
Expected efficacy against Enterobacter sakazakii (Enterobacter sakazakii): no
Expected efficacy against Citrobacter diversus (Citrobacter diversus): no
Expected efficacy against Campylobacter jejuni (Campylobacter jejuni): yes
Expected efficacy against Acinetobacter lwoffii (Acinetobacter lwoffii): no
Expected efficacy against Proteus mirabilis (Proteus mirabilis): no
Expected efficacy against Acinetobacter calcoaceticus [6]: no
Expected efficacy against Streptococcus agalactiae (Streptococcus agalactiae): yes
Expected efficacy against Morganella morganii (Morganella morganii): no
Expected efficacy against Streptococcus pyogenes (Streptococcus pyogenes): yes
Expected efficacy against Acinetobacter baumannii (Acinetobacter baumannii): no
Expected efficacy against Klebsiella oxytoca (Klebsiella oxytoca): no
Expected efficacy against Klebsiella (Calymmato-bacterium) granulomatis [2]: no
Expected efficacy against Clostridium perfringens (Clostridium perfringens): no
Expected efficacy against Bacteroides fragilis (Bacteroides fragilis): no
Expected efficacy against Serratia marcescens (Serratia marcescens): no
Expected efficacy against Chlamydia trachomatis (Chlamydia trachomatis): yes
Expected efficacy against Pseudomonas fluorescens (Pseudomonas fluorescens): no
Expected efficacy against Enterobacter aerogenes (Enterobacter aerogenes): no
Expected efficacy against Escherichia coli (Escherichia coli): no
Expected efficacy against Enterobacter cloacae (Enterobacter cloacae): no
Expected efficacy against Providencia stuartii (Providencia stuartii): no
Expected efficacy against Staphylococcus epidermidis [3]: yes
